# Data from patent publication EP1180991B1, “GAMBOGIC ACID DERIVATIVES AS ACTIVATORS OF CASPASES AND INDUCERS OF APOPTOSIS” (Cytovia, Inc., priority 1999, dated 2000).
# Legend:
# [1] = test system: ZR-75-1; test: Caspase cascade activation assay (Example 90); format: cell-based, human; settings: ZR-75-1, 24 h incubation
# Description: (§1) Human breast cancer cell lines T-47D and ZR-75-1, human prostate cancer cell line PC-3, human leukemia cancer cell line HL-60 and human non-transformed fibroblast cell line MRC-5 cells were grown according to media component mixtures designated by The American Type Culture Collection + 10% FCS (Life Technologies, Inc.), in a 5% CO2 -95% humidity incubator at 37° C. T-47D, ZR-75-1 and PC-3 cells were maintained at a cell density between 30 and 80% confluency and for HL-60 at a cell density of 0.1 to 0.6 x 10^6 cells/ml. Cells were harvested at 600xg and resuspended at 0.65 x 10^6 cells/ml into appropriate media + 10% FCS. […] The samples were mixed by agitation and incubated at room temperature.
# (§2) The EC50 (nM) was determined by a sigmoidal dose-response calculation (Prism 2.0, GraphPad Software Inc.). Caspase Activity and Potency
# [2] = test system: PC-3; test: Caspase cascade activation assay (Example 90); format: cell-based, human; settings: PC-3, 24 h incubation
# Description: as §1, §2
# [3] = test system: T-47D; test: Caspase cascade activation assay (Example 90); format: cell-based, human; settings: T-47D, 24 h incubation
# Description: as §1, §2
# [4] = test system: MRC-5; test: Caspase cascade activation assay (Example 90); format: cell-based, human; settings: MRC-5 non-transformed fibroblasts, 24 h incubation
# Description: as §1, §2
# [5] = test system: T47D cells; test: PARP cleavage, western blot (Example 98); format: cell-based, human; settings: 1 µM, 2 h and 4 h (Fig. 5C)
# Description: (§3) Cleavage of the enzyme poly(ADP)ribose polymerase (PARP) by caspase-3 and related proteases is considered to be one of the molecular hallmarks of caspase-mediated apoptosis. Therefore, the ability of gambogic acid to induce PARP cleavage in four different human tumor cell lines (Jurkat cells, HL-60 cells, T47D cells and PC3 cells) was determined.
# (§4) […] Control cultures were treated with a drug vehicle (DMSO), or the well-characterized apoptosis inducer, staurosporine. At the end of the apoptosis induction period, the cells were harvested, washed once with PBS, quick-frozen on dry ice, and stored at -80° C. The cells were then lysed in a standard immunoblotting lysis buffer and samples of the lysates were electrophoresed on 4% to 20% gradient polyacrylamide gels. The proteins in the gels were then transferred to PVDF membranes and probed with a commercially-available rabbit polyclonal antibody to PARP.
# [6] = test system: PC3 cells; test: PARP cleavage, western blot (Example 98); format: cell-based, human; settings: 1 µM, 2 h and 4 h (Fig. 5D)
# Description: as §3, §4
# [7] = test system: HL-60; test: Caspase cascade activation assay (Example 90); format: cell-based, human; settings: HL-60; 24 h incubation, 0.16 to 10 µM final; net RFU ratio to control
# Description: as §1, §2
# [8] = test system: KB; settings: Lin et al. 1993; cited from earlier work
# [9] = test system: KB-V1; settings: Lin et al. 1993; cited from earlier work
# [10] = test system: several cancer cell lines; settings: cited from earlier work
# [11] = test system: T-47D; test: Caspase cascade activation by known antineoplastic compounds (Example 92); settings: Homo sapiens, T47D, 24 h, read-out: ratio of the net RFU value for test compounds to that of control samples (caspase cascade activation)
# Description: (§5) The samples were mixed by agitation and then incubated at 37° C for 24 h in a 5% CO2-95% humidity incubator. […] The samples were mixed by agitation and incubated for 3 h at room temperature. […] After the 3 h incubation, the samples were read for fluorescence as above (T = 3 h).
# (§6) The Relative Fluorescence Unit values (RFU) were used to calculate the sample readings as follows: RFU(T=3⁢hr) −Control RFU(T=0) = Net RFU(T=3⁢hr) [formula]
# (§7) The activity in caspase cascade activation was determined by the ratio of the net RFU value for test compounds to that of control samples.
# [12] = test system: PC-3; test: as above; settings: Homo sapiens, PC-3, 24 h, read-out: ratio of the net RFU value for test compounds to that of control samples (caspase cascade activation)
# Description: as §5, §6, §7
# [13] = Homo sapiens, caspase activation, read-out: EC50
# [14] = 0.16 to 10 µM final, net RFU ratio to control
molecule,measurement,setting,value
"COc1c2c(c(CC=C(C)C)c3c1C(=O)C1=CC4CC5C(C)(C)OC(C/C=C(/C)C(=O)N6CCCCC6)(C4=O)C15O3)OC(C)(CCC=C(C)C)C=C2 (stereo not drawn) [Example 7, 6-Methoxy-gambogyl Piperidine]",EC50,[1]; [13],1650 nM
same,EC50,[2]; [13],1700 nM
same,EC50,"[3]; Homo sapiens, T47D, caspase activation, read-out: EC50",830 nM
same,EC50,"[4]; Homo sapiens, MRC5, caspase activation, read-out: EC50",1200 nM
"CN[C@@H]1C[C@H]2O[C@@](C)([C@@H]1OC)n1c3ccccc3c3c4c(c5c6ccccc6n2c5c31)C(=O)NC4 [staurosporine, reference compound]",PARP cleavage,[5],no cleavage of PARP
same,PARP cleavage,[6],no cleavage of PARP
"CC(C)=CCC/C(C)=C/Cc1c(O)c(CC=C(C)C)c2c(c1O)C(=O)C1=CC3CC4C(C)(C)OC(C/C=C(/C)C(=O)O)(C3=O)C14O2 (stereo not drawn) [Example 2, Gambogenic Acid]",caspase activity (Ratio),[7],5.6
same,caspase activity (Ratio),[1]; [14],14.2
same,caspase activity (Ratio),[2]; [14],2.9
same,caspase activity (Ratio),[3]; [14],16.9
same,caspase activity (Ratio),[4]; [14],22.4
Isogambogic Acid [Example 18],cytotoxicity,[8],cytotoxic
same,cytotoxicity,[9],cytotoxic
"CC(C)=CCc1c2c(c(O)c3c1OC14C(=CC5CC1C(C)(C)OC4(C/C=C(\C)CO)C5=O)C3=O)C=CC(C)(C)O2 (stereo not drawn) [isomorellinol, reference compound]",cytotoxicity,[8],cytotoxic
same,cytotoxicity,[9],cytotoxic
"CC(C)=CCc1c(O)cc(O)c2c1O[C@]13C(=C[C@@H]4C[C@H]1C(C)(C)O[C@@]3(CC=C(C)C)C4=O)C2=O [forbesione, reference compound]",cytotoxicity,[10],significant cytotoxicity
CC[C@@]1(O)C(=O)OCc2c1cc1n(c2=O)Cc2cc3ccccc3nc2-1 [Camptothecin],fold induction at 10 µM,[11],0.7
same,fold induction at 10 µM,[12],0.6
O=c1[nH]cc(F)c(=O)[nH]1 [5-fluorouracil],fold induction at 10 µM,[11],0.8
same,fold induction at 10 µM,[12],0.7
CC[C@]1(O)C[C@@H]2CN(CCc3c([nH]c4ccccc34)[C@@](C(=O)OC)(c3cc4c(cc3OC)N(C)[C@H]3[C@@](O)(C(=O)OC)[C@H](OC(C)=O)[C@]5(CC)C=CCN6CC[C@]43[C@@H]65)C2)C1 [Vinblastine],fold induction at 10 µM,[11],0.9
same,fold induction at 10 µM,[12],0.8
COc1cc([C@@H]2c3cc4c(cc3[C@@H](O[C@@H]3O[C@@H]5CO[C@@H](C)O[C@H]5[C@H](O)[C@H]3O)[C@H]3COC(=O)[C@H]23)OCO4)cc(OC)c1O [Etoposide],fold induction at 10 µM,[11],1
same,fold induction at 10 µM,[12],0.8
